{"source": "paper PMC5989765", "about": "“The safety, tolerability, and pharmacokinetic profile of GSK2838232, a novel 2nd generation HIV maturation inhibitor, as assessed in healthy subjects” (Pharmacology Research & Perspectives, 2018)", "assay": "Study 204953 Part 1B: relative bioavailability capsule versus API PiB and food effect, with RTV", "type": "in vivo", "experimental": "This study was planned as an extension of the previously conducted single‐ and multiple‐dose escalation studies described above. It was a double‐blind, placebo‐controlled, single and repeat dose escalation study of micronized API GSK2838232 with RTV conducted in three parts (Part 1A, Part 1B, and Part 2).\nIn Part 1A, a cohort of subjects was given single doses of 50, 100, and 250 mg of GSK2838232 with RTV, following 2 days of RTV predosing, in a sequential dose‐escalation design. Part 1B studied the relative bioavailability of GSK2838232 given as 100 mg (2 × 50 mg) capsules versus the reference API (PiB) in a two‐period crossover design with RTV, following 2 days of RTV predosing. In Period 3, subjects took the capsule formulation and RTV with a moderate fat meal (30% of calories from fat).\nBlood samples were taken via an indwelling cannula or by direct venipuncture, collected into a di‐potassium ethylenediaminetetraacetic acid (K2 EDTA) tube, and placed on wet ice. Samples were centrifuged at approximately 1500g for 10 minutes at approximately 4°C. Exactly 500 μL of the resulting plasma was transferred into labeled 1.4 mL Matrix TrakMate Tubes containing exactly 500 μL of 50 mmol/L citrate buffer, pH 4.0, and mixed well. When 500 μL of plasma was not able to be transferred, the ratio of plasma to citrate buffer was kept at 1:1. Buffered plasma samples were kept on ice and frozen at −70°C within 1 hour of collection. Plasma samples were analyzed for GSK2838232 using a validated analytical method based on protein precipitation, followed by high performance liquid chromatography with tandem mass spectrometry (HPLC/MS/MS) analysis.\nExtracts were analyzed using HPLC (Shimadzu, Nexera, 30 series) and tandem mass spectrometry detection (HPLC‐MS/MS). The mass spectrometer used was an API‐5500 using IonSpray interface (500 V) in positive mode monitoring. The mass transitions were 809.5 to 255.1 and 816.5 to 262.1 for GSK2838232 and [2H7] GSK2838232 (the isotopically labeled internal standard), respectively. The chromatographic conditions utilized a Waters Acquity UPLC BEH C18 column (50 × 2.1 mm, 1.7 μm) with mobile phases consisting of 1 mmol/L ammonium formate:formic acid (100:0.005) (mobile phase A) and acetonitrile:formic acid (100:0.1) (mobile phase B) at a flow rate of 0.6 mL/min, with pump B at 63% held for 2 minutes. The assay was validated to have precision (%RSD) of 0.7%‐6.5% (within‐run) and 1.0%‐5.9% RSD (between‐run) and with accuracy (%bias) of 0.0%‐1.6%. […] The lower limit of quantification (LLQ) was 0.5 ng/mL, using a 50 μL aliquot of K2EDTA acidified plasma. The higher limit of quantification (HLQ) was 500 ng/mL.\nThe PK parameters were calculated by standard noncompartmental analysis based on actual sampling times using WinNonlin Version 6.3 or higher. Estimation of AUC used the linear up/log down trapezoidal rule.\nFor the assessment of relative bioavailability of the capsule formulation compared to the PiB suspension and of the food effect using the capsule formulation (all with RTV), PK parameters were separately analyzed for each treatment using a mixed effects model with fixed effect terms for period and treatment following loge transformation. Subject was treated as a random effect in the model. Point estimates and their associated 90% CIs were constructed for the differences in PK parameter values between the test and reference treatments. The point estimates and their associated 90% CIs were then back‐transformed to provide point estimates and 90% CIs for the ratios of PK parameters from test and reference treatments on the original scale.", "key": {"[1]": {"conditions": "100 mg Fed (moderate, 30% fat meal) versus 100 mg fasted, API capsule formulation with RTV, Study 204953"}, "[2]": {"conditions": "Capsule : API PiB, single 100 mg + ritonavir, Study 204953"}}, "data": [{"smiles": "CC(C)C1=C2[C@H]3CC[C@@H]4[C@@]5(C)CC[C@H](OC(=O)CC(C)(C)C(=O)O)C(C)(C)[C@@H]5CC[C@@]4(C)[C@]3(C)CC[C@@]2([C@@H](O)CN(CCN(C)C)Cc2ccc(Cl)cc2)CC1=O", "note": "[GSK2838232]", "values": [{"measurement": "Geometric least square mean ratio [90% CI], AUC(0‐∞)", "setting": "[1]", "result": "1.58 (1.412,1.777)"}, {"measurement": "Geometric least square mean ratio [90% CI], C max", "setting": "[1]", "result": "1.62 (1.376,1.911)"}, {"measurement": "Ratio of Geometric Least Square Means, AUC(0‐∞)", "setting": "[2]", "result": 1.43}, {"measurement": "Ratio of Geometric Least Square Means, C max", "setting": "[2]", "result": 1.58}, {"measurement": "bioavailability after meal relative to the fasted state", "setting": "capsule formulation with RTV, moderate fat (30%) meal, Study 204953", "result": "approximately 1.6 fold"}, {"measurement": "C24, capsule relative to PiB suspension", "setting": "single 100 mg with RTV", "result": 1.4, "unit": "fold"}, {"measurement": "C max, capsule relative to PiB suspension", "setting": "single 100 mg with RTV", "result": 1.6, "unit": "fold"}, {"measurement": "t½ geometric LS mean ratio, capsule versus PiB", "setting": "single 100 mg with RTV, data not shown", "result": "no difference"}]}]}
